Assay results published in publication PMC10989020, “Preclinical characterization of a non-peptidomimetic HIV protease inhibitor with improved metabolic stability” (Antimicrobial Agents and Chemotherapy, 2024).
Where two headings read alike, the source gives them in different places.

Tests used:
[1] = test system: HIV-1 IIIb; experiment: 5-day cytoprotection antiviral assay in MT-4 cells; format: cell-based
[2] = test system: HIV-1 BaL; experiment: p24 production antiviral assay in CD4+ T-lymphocytes; format: cell-based
Text: (§1) Antiviral assays performed in HIV-1BaL infected CD4 +T-lymphocytes and monocyte-derived macrophages (MDMs) have been described previously ([18]). Cell-free supernatants derived from the CD4 +T cell and macrophage cultures were harvested 7- and 12-days post-infection, respectively, and the amount of HIV present was quantified by p24 antigen enzyme-linked immunosorbent assay (ELISA, Perkin Elmer, Waltham, MA) performed according to the manufacturer’s protocol.

[3] = single oral dose co-administered with a pharmacological boosting agent; cited from earlier work
[4] = test system: HIV-1 BaL; experiment: p24 production antiviral assay in monocyte-derived macrophages; format: cell-based
Text: as §1

[5] = test system: HIV-1LAI wild type and site-directed PR mutants; experiment: microbe, parasite or virus in culture; format: cell-based
[6] = Cytotoxicity in CD4+ T-lymphocytes; format: cell-based; conditions: human, uninfected (mock infected) primary CD4+ T lymphocytes
Experimental: (§2) Compound cytotoxicity assessment in MT-4 cells, primary CD4+ T lymphocytes, and MDMs was carried out using a protocol identical to the antiviral assay except uninfected cells were used and tested with higher concentration ranges of test compounds. Assessment of cytotoxicity in additional human cell lines (Gal-PC3, Gal-HepG2, HEp-2, Huh-7, MRC-5, HepG2-NTCP, Huh7-Lunet HCV 1b and 2a replicons, NHBE, A549-hACE2) and primary human PBMCs (resting and stimulated with PHA/IL-2) and hepatocytes have been described previously ([19]). For all cytotoxicity assays, the CC50 value for puromycin was determined as a positive internal control and to assess assay sensitivity in each cell type. The effect of tested compounds on cell viability was measured using a CellTiter-Glo readout, performed according to the manufacturer’s recommendations.

[7] = Cytotoxicity in uninfected MT-4 cells; format: cell-based, human; conditions: human, uninfected (mock infected) MT-4 T cells, MT-4 T cell line
Experimental: as §2

[8] = test system: MT-4 T cell line; experiment: Cytotoxicity in uninfected MT-4 cells; format: cell-based, human; conditions: mock infected
Experimental: as §2

[9] = test system: panel of 49 patient-derived HIV-1 reporter viruses with PI resistance-associated substitutions; format: cell-based; conditions: for isolates with complete loss of activity: of 49 PI-resistant clinical isolates
[10] = biological target: recombinant HIV-1 protease (Human immunodeficiency virus type 1 group M subtype B, UniProt P04585); experiment: biochemical
Experimental: For the HIV protease assay, recombinant HIV-1 protease expression, purification, and enzymatic assay using a fluorogenic readout were performed as previously described with some minor changes ([22]). […] After a 20-minute pre-incubation, the enzymatic reaction was initiated by the addition of the fluorogenic substrate to a final concentration of 40 µM and a final volume of 100 µL. The reaction was measured over 20 minutes on a Tecan Infinite M1000 plate reader using excitation and detection wavelengths of 320 nm and 420 nm, respectively.

[11] = Metabolic stability in human liver microsomes; format: in vitro ADME
[12] = Cytotoxicity in monocyte-derived macrophages; format: cell-based; conditions: human, uninfected (mock infected) monocyte-derived macrophages
Experimental: as §2

[13] = test system: HIV-1IIIb; experiment: Two-drug in vitro combination assay in MT-2 cells (MacSynergy II); format: cell-based; conditions: for Combination effect: pairwise combination with GS-9770; for Antagonism volume / Synergy volume: pairwise combination with GS-9770, 99% confidence, MT-2/HIV-1IIIb
Experimental: Anti-HIV-1 assays evaluating the in vitro antiviral effect of two-drug combinations were performed in MT-2 cells as previously described ([26]). Data were normalized to positive and negative controls in each plate and expressed as a percentage of protection from CPE-dependent cell death and analyzed with the MacSynergy II software. Combination data were analyzed at the 99% confidence level, with synergy/antagonism volumes defined as follows: high synergy (>100 µM^2%), moderate synergy (50 to <100 uM^2%), additivity (>−50 to <50 µM^2%), and antagonism (<−50 µM^2%).

[14] = test system: HIV-1 mutants resistant to NRTIs, NNRTIs, INSTIs
[15] = test system: two HIV-2 isolates; experiment: Antiviral assay in PBMCs with HIV-2 clinical isolates (RT endpoint); format: cell-based; conditions: Human immunodeficiency virus 2, PBMC, 168 h, 7-day, RT activity
Experimental: (§3) Antiviral assays using fresh human PBMCs independently infected with a panel of clinical HIV-1 and HIV-2 isolates were performed by Southern Research as a contracted research study and assessed 7 days post-infection using reverse transcriptase (RT) endpoint assay. Antiviral assays using HIV-1 reporter viruses containing patient-derived sequences encoding all of PR and a portion of RT (amino acids 1–313) and conferring resistance to FDA-approved HIV PIs were performed by Monogram Biosciences Inc. (South San Francisco, CA) using their previously described Phenosense assay ([25]).

[16] = test system: 20 HIV-1 clinical isolates; experiment: Antiviral assay in PBMCs with HIV-1 clinical isolates (RT endpoint); format: cell-based; conditions: Human immunodeficiency virus 1, PBMC
Experimental: as §3

[17] = Cytotoxicity in stimulated PBMCs; format: cell-based; conditions: human
Experimental: as §2

[18] = Cytotoxicity in unstimulated PBMCs; format: cell-based; conditions: human, unstimulated (resting) PBMCs
Experimental: as §2

[19] = Cytotoxicity in Huh-7; format: cell-based; conditions: human, Huh-7 cells
Experimental: as §2

[20] = Cytotoxicity in MRC-5; format: cell-based; conditions: human, MRC-5 cells
Experimental: as §2

[21] = Cytotoxicity across human cell types (summary ranges); format: cell-based; conditions: human, human cell lines and primary cells (all cell types tested); across all of the cell types tested; read-out: mean CC50 range
Experimental: as §2

[22] = Cytotoxicity in HEp-2; format: cell-based; conditions: human, HEp-2 cells
Experimental: as §2

[23] = Cytotoxicity in Gal-HepG2; format: cell-based; conditions: human, Gal-HepG2 cells
Experimental: as §2

[24] = Cytotoxicity in Gal-PC3; format: cell-based; conditions: human, Gal-PC3 cells
Experimental: as §2

[25] = Cytotoxicity in primary human hepatocytes; format: cell-based
Experimental: as §2

[26] = Human immunodeficiency virus 1, PR L24I M46L A77I V82A
[27] = Human immunodeficiency virus 1, PR L24I M46L I64V A77I V82A
[28] = Human immunodeficiency virus 1, PR M46L A77I V82A
[29] = Human immunodeficiency virus 1, PR V82A
[30] = Human immunodeficiency virus 1, Wild type (WT) HIV-1LAI

COC(=O)N[C@H](C(=O)N[C@@H](Cc1ccccc1)[C@@H](O)CN(Cc1ccc(-c2ccccn2)cc1)NC(=O)[C@@H](NC(=O)OC)C(C)(C)C)C(C)(C)C [ATV, atazanavir]
EC50 ([1]; Human immunodeficiency virus 1, IIIB, T-cell, 120 h): 11 ± 3 nM
SI (CC50/EC50 ratio) ([1]; MT-4 T cell line): 4,700
95% effective concentration (EC95) ([1]; calculated from MT-4/HIV-1IIIb EC50 and Hill coefficient): 19.5 nM
SI (CC50/EC50 ratio) [2]: >12,000
EC50 ([2]; Human immunodeficiency virus 1, T-lymphocyte, HIV-1BaL infected): 4.3 ± 1.9 nM
plasma half-life in humans [3]: 516 min
SI (CC50/EC50 ratio) [4]: >3,100
EC50 ([4]; Human immunodeficiency virus 1, Macrophage, HIV-1BaL infected): 16 ± 12 nM
EC50 [5, 26]: 4.2 ± 0.8 nM
EC50 [5, 27]: 11.7 ± 1.4 nM
EC50 [5, 28]: 6.9 ± 1.8 nM
EC50 [5, 29]: 7.6 ± 3.3 nM
EC50 [5, 30]: 5.7 ± 3.6 nM
fold-change relative to WT ([5]; PR L24I M46L A77I V82A): 0.7 fold
fold-change relative to WT ([5]; PR L24I M46L I64V A77I V82A): 2.1 fold
fold-change relative to WT ([5]; PR M46L A77I V82A): 1.2 fold
fold-change relative to WT ([5]; PR V82A): 1.3 fold
fold-change relative to WT ([5]; Wild type (WT) HIV-1LAI): 1.0 fold
CC50 [6]: > 50000 nM
CC50 [7]: > 50000 nM
CC50 [8]: 51000 ± 8000 nM
data points with fold change in EC50 above limit [9]: five
mean fold change (FC) in EC50 vs wild-type HIV-1 (geometric mean) ([9]; 49 PI-resistant reporter viruses): 9.1 fold
isolates with complete loss of activity [9]: 3
isolates with greater than 10-fold loss in susceptibility ([9]; of 49 isolates, cutoff 10-fold): 16
Ki [10]: 0.023 nM
Eh% (percent predicted hepatic extraction) [11]: 63%
Predicted CL (predicted human clearance) [11]: 13 mL/min/kg
half-life ([11]; read-out: T½ in the presence of human liver microsomes): 24 min
CC50 [12]: > 50000 nM

Nc1nc(=O)n([C@@H]2CS[C@H](CO)O2)cc1F [FTC, emtricitabine]
Combination effect [13]: Highly synergistic
Antagonism volume [13]: −8 ± 11 µM^2.%
Synergy volume [13]: 139 ± 24 µM^2.%
Fold resistance (mutant/wildtype EC50 ratio) ([14]; 6TAMs): 23 ± 21
Fold resistance (mutant/wildtype EC50 ratio) ([14]; K65R): 12 ± 6
Fold resistance (mutant/wildtype EC50 ratio) ([14]; M184V): >141

O=C(NCc1c(F)cc(F)cc1F)c1cn2c(c(O)c1=O)C(=O)N1[C@H]3CC[C@H](C3)O[C@@H]1C2 [BIC, bictegravir]
Combination effect [13]: Highly synergistic
Antagonism volume [13]: −11 ± 13 µM^2.%
Synergy volume [13]: 156 ± 49 µM^2.%

CC(C)CN(C[C@@H](O)[C@H](Cc1ccccc1)NC(=O)O[C@H]1CO[C@H]2OCC[C@H]21)S(=O)(=O)c1ccc(N)cc1 [DRV, darunavir]
EC50 [15]: 8.5 nM
EC50 ([16]; 168 h, read-out: mean EC50): 3.2 nM
EC50 ([16]; read-out: EC50 range): 0.8 to 9.2 nM
isolates with complete loss of activity [9]: 5

CC(C)(C#Cc1ccc(-c2ccc(Cl)c3c(NS(C)(=O)=O)nn(CC(F)(F)F)c23)c([C@H](Cc2cc(F)cc(F)c2)NC(=O)Cn2nc(C(F)(F)F)c3c2C(F)(F)[C@@H]2C[C@H]32)n1)S(C)(=O)=O [LEN, lenacapavir]
Combination effect [13]: Highly synergistic
Antagonism volume [13]: −0.6 ± 1.7 µM^2.%
Synergy volume [13]: 201 ± 111 µM^2.%

COc1ccc(C[C@H](N)C(=O)N[C@H]2[C@@H](O)[C@H](n3cnc4c(N(C)C)ncnc43)O[C@@H]2CO)cc1 [Puromycin, puromycin]
CC50 [17]: 800 ± 150 nM
CC50 [18]: 540 ± 210 nM
CC50 [19]: 800 ± 700 nM
CC50 [20]: 310 ± 200 nM
CC50 [21]: 310 to 1600 nM
CC50 [22]: 600 ± 300 nM
CC50 [23]: 1400 ± 800 nM
CC50 [24]: 450 ± 170 nM
CC50 [25]: 1600 ± 200 nM

Cc1cc(/C=C/C#N)cc(C)c1Nc1ccnc(Nc2ccc(C#N)cc2)n1 [RPV, rilpivirine]
Combination effect [13]: Highly synergistic
Antagonism volume [13]: 0 ± 0 µM^2.%
Synergy volume [13]: 184 ± 65 µM^2.%

CC(C)OC(=O)[C@H](C)N[P@](=O)(CO[C@H](C)Cn1cnc2c(N)ncnc21)Oc1ccccc1 [TAF, tenofovir alafenamide]
Combination effect [13]: Highly synergistic
Antagonism volume [13]: −4 ± 7 µM^2.%
Synergy volume [13]: 166 ± 51 µM^2.%

COc1cc2c(cc1Cc1cccc(Cl)c1F)c(=O)c(C(=O)O)cn2[C@H](CO)C(C)C [EVG, elvitegravir]
Fold resistance (mutant/wildtype EC50 ratio) ([14]; E92Q+N155H): >50
Fold resistance (mutant/wildtype EC50 ratio) ([14]; E138K+Q148K): >50
Fold resistance (mutant/wildtype EC50 ratio) ([14]; G140S+Q148R): >50
Fold resistance (mutant/wildtype EC50 ratio) ([14]; Q148+N155H): >50

O=C1Nc2ccc(Cl)cc2[C@@](C#CC2CC2)(C(F)(F)F)O1 [EFV, efavirenz]
Fold resistance (mutant/wildtype EC50 ratio) ([14]; K103N): 14 ± 12
Fold resistance (mutant/wildtype EC50 ratio) ([14]; K103N+Y181C): 11 ± 5
Fold resistance (mutant/wildtype EC50 ratio) ([14]; L100I+K103N): >30
Fold resistance (mutant/wildtype EC50 ratio) ([14]; Y181C): 3.5 ± 0.6
Fold resistance (mutant/wildtype EC50 ratio) ([14]; Y188L): >30
EC50 [5, 26]: 1.1 ± 0.1 nM
EC50 [5, 27]: 1 ± 0.2 nM
EC50 [5, 28]: 1 ± 0.2 nM
EC50 [5, 29]: 1.2 ± 0.6 nM
EC50 [5, 30]: 1.3 ± 0.7 nM
fold-change relative to WT ([5]; PR L24I M46L A77I V82A): 0.9 fold
fold-change relative to WT ([5]; PR L24I M46L I64V A77I V82A): 0.8 fold
fold-change relative to WT ([5]; PR M46L A77I V82A): 0.8 fold
fold-change relative to WT ([5]; PR V82A): 1.0 fold
fold-change relative to WT ([5]; Wild type (WT) HIV-1LAI): 1.0 fold
